Assay results published in ChEMBL document CHEMBL4616668, “Discovery of a High Affinity, Orally Bioavailable Macrocyclic FXIa Inhibitor with Antithrombotic Activity in Preclinical Species” (J Med Chem, 2020).

Key:
[1] = Half life in cynomolgus monkey liver microsomes; format: ADME, Macaca fascicularis, Microsome
[2] = Half life in human liver microsomes; format: ADME, Microsome
Coagulation factor XI = Coagulation factor XI (Homo sapiens, UniProt P03951); assay: Inhibition of human factor11a using pyro-Glu-Pro-Arg-pNA(para-nitroaniline) substrate by spectrophotometry
Sequence of Coagulation factor XI (P03951 19-387 limits assumed): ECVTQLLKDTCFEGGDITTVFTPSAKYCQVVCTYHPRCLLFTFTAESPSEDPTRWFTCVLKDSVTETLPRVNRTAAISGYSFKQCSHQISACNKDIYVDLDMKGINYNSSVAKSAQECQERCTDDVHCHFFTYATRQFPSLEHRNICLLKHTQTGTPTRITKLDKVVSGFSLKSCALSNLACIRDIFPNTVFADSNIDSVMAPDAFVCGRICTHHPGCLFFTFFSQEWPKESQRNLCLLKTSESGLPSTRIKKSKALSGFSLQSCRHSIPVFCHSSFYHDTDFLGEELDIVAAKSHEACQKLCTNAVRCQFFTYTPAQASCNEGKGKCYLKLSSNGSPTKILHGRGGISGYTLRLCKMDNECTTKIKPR
Sequence of Coagulation factor XI (P03951 388-625 limits assumed): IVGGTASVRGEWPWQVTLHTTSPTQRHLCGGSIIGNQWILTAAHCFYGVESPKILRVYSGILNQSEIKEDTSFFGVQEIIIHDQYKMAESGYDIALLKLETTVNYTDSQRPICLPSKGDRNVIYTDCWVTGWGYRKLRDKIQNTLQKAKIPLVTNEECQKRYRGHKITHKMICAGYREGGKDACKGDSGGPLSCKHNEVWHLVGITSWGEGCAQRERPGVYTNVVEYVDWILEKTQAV

[3] = Half life in rat liver microsomes; format: ADME, Microsome
[4] = Half life in dog liver microsomes; format: ADME, Canis lupus familiaris, Microsome
Plasma [5] = assay: Anticoagulant activity in human plasma assessed as activated partial thromboplastin time; format: functional
[6] = Oral bioavailability in Sprague-Dawley rat at […]; format: ADME, organism-based; conditions: in vivo
[7] = Clearance in Sprague-Dawley rat at 0.6 mg/kg, iv; format: ADME, organism-based; conditions: in vivo
[8] = AUC in cynomolgus monkey at 1.5 mg/kg, po; format: ADME, organism-based, Macaca fascicularis; conditions: in vivo
[9] = Terminal half life in Beagle dog at 0.4 mg/kg, iv; format: ADME, organism-based, Canis lupus familiaris; conditions: in vivo, read-out: beta t1/2 (converted)
[10] = Apparent volume of distribution at steady-state in cynomolgus monkey at 0.5 mg/kg, iv; format: ADME, organism-based, Macaca fascicularis; conditions: in vivo, read-out: Vdss(app)
[11] = Apparent volume of distribution at steady-state in Beagle dog at 0.4 mg/kg, iv; format: ADME, organism-based, Canis lupus familiaris; conditions: in vivo, read-out: Vdss(app)
[12] = Clearance in cynomolgus monkey at 0.5 mg/kg, iv; format: ADME, organism-based, Macaca fascicularis; conditions: in vivo
[13] = AUC in cynomolgus monkey at 0.5 mg/kg, iv; format: ADME, organism-based, Macaca fascicularis; conditions: in vivo
[14] = AUC in Sprague-Dawley rat at 0.6 mg/kg, iv; format: ADME, organism-based; conditions: in vivo
[15] = Apparent volume of distribution at steady-state in Sprague-Dawley rat at 0.6 mg/kg, iv; format: ADME, organism-based; conditions: in vivo, read-out: Vdss(app)
[16] = Oral bioavailability in cynomolgus monkey at 1.5 mg/kg; format: ADME, organism-based, Macaca fascicularis; conditions: in vivo
[17] = Permeability form basolateral to apical side in human Caco2 cells; format: ADME, cell-based; conditions: Caco-2, read-out: permeability
[18] = AUC in Beagle dog at 1.1 mg/kg, po; format: ADME, organism-based, Canis lupus familiaris; conditions: in vivo
[19] = Terminal half life in cynomolgus monkey at 0.5 mg/kg, iv; format: ADME, organism-based, Macaca fascicularis; conditions: in vivo, read-out: beta t1/2 (converted)
[20] = Oral bioavailability in Beagle dog at 1.1 mg/kg; format: ADME, organism-based, Canis lupus familiaris; conditions: in vivo
[21] = Terminal half life in Sprague-Dawley rat at 0.6 mg/kg, iv; format: ADME, organism-based; conditions: in vivo, read-out: beta t1/2 (converted)
[22] = Clearance in Beagle dog at 0.4 mg/kg, iv; format: ADME, organism-based, Canis lupus familiaris; conditions: in vivo
[23] = Permeability form apical to basolateral side in human Caco2 cells; format: ADME, cell-based; conditions: Caco-2, read-out: permeability
[24] = AUC in Beagle dog at 0.4 mg/kg, iv; format: ADME, organism-based, Canis lupus familiaris; conditions: in vivo
[25] = AUC in Sprague-Dawley rat at […], po; format: ADME, organism-based; conditions: in vivo
Plasma [26] = assay: Anticoagulant activity in rabbit plasma assessed as activated partial thromboplastin time; format: functional, Oryctolagus cuniculus
[27] = Toxicity in New Zealand White rabbit model of cuticle bleeding time assessed as increase in cuticle bleeding time at 4 mg/kg/hr dosed as continuous intravenous infusion 30 to 60 mins prior to cuticle transection relative to control; format: organism-based, Oryctolagus cuniculus; conditions: in vivo

| SMILES | half-life [1] [min] | half-life [2] [min] | Ki (Coagulation factor XI) [nM] | half-life [3] [min] | half-life [4] [min] | EC1.5 (Plasma [5]) [µM] | further results |
| --- | --- | --- | --- | --- | --- | --- | --- |
| COC(=O)Nc1ccc2c(c1)NC(=O)[C@H](C)CCC[C@H](N1CC(=O)N(c3c(F)ccc(Cl)c3F)CC1=O)c1cc-2ccn1 | 27 | 75 | 4.9 | 55 | 72 | 1.4 | – |
| COC(=O)Nc1ccc2c(c1)NC(=O)[C@H](C)CCC[C@H](N1CCC(c3c(F)ccc(Cl)c3F)=CC1=O)c1cc-2ccn1 | – | – | – | – | – | 1.8 | – |
| COC(=O)Nc1ccc2c(c1)NC(=O)[C@H](C)CCC[C@H](N1CC[C@H](c3c(F)ccc(Cl)c3F)OC1=O)c1ncc-2[nH]1 | 17 | 55 | 0.7 | 48 | 38 | 0.6 | AUC [8]: 0.263 µM·h; bioavailability [6]: 54%; half-life [9]: 114 min; Vd [10]: 9.2 L/kg; Vd [11]: 5.1 L/kg; clearance [12]: 56 mL/min/kg; AUC [13]: 0.233 µM·h; AUC [14]: 0.52 µM·h; Vd [15]: 3.2 L/kg; bioavailability [16]: 29%; Papp B→A [17]: 23.8 ×10⁻⁶ cm/s; AUC [18]: 0.446 µM·h; half-life [19]: 84 min; bioavailability [20]: 57%; half-life [21]: 84 min; clearance [7]: 33 mL/min/kg; clearance [22]: 38 mL/min/kg; Papp A→B [23]: 3.8 ×10⁻⁶ cm/s; AUC [24]: 0.285 µM·h; AUC [25]: 0.687 µM·h |
| COC(=O)Nc1ccc2c(c1)NC(=O)[C@H](C)CCC[C@H](N1CCC(c3c(F)ccc(Cl)c3F)NC1=O)c1cc-2ccn1 (stereo partly specified) | 2 | 17 | 0.5 | 40 | 27 | 7.5 | – |
| COC(=O)Nc1ccc2c(c1)NC(=O)[C@H](C)CCC[C@H](N1CC[C@H](c3c(F)ccc(Cl)c3F)OC1=O)c1cc-2ccn1 | 12 | 56 | 0.6 | 35 | 27 | 0.5 | bioavailability [6]: 37%; clearance [7]: 23 mL/min/kg |
| COC(=O)Nc1ccc2c(c1)NC(=O)[C@H](C)CCC[C@H](N1CCC(c3c(F)ccc(Cl)c3F)=CC1=O)c1cc-2ccn1.O=C(O)C(F)(F)F | – | – | – | – | – | – | EC1.5 (Plasma [26]): 26 µM |
| CC(=O)Oc1ccccc1C(=O)O [ASPIRIN] | – | – | – | – | – | – | fold change (FC) [27]: 2.3 |

The remaining compounds from weak to strong by Ki (Coagulation factor XI), led by results:

| half-life [1] [min] | half-life [2] [min] | Ki (Coagulation factor XI) [nM] | half-life [3] [min] | half-life [4] [min] | SMILES | EC1.5 (Plasma [5]) [µM] | further results |
| --- | --- | --- | --- | --- | --- | --- | --- |
| 80 | 76 | 14 | 60 | 64 | COC(=O)Nc1ccc2c(c1)NC(=O)[C@H](C)CCC[C@H](N1CCN(c3c(F)ccc(Cl)c3F)C(=O)C1=O)c1cc-2ccn1 | 4.3 | – |
| 1 | 4 | 4.5 | 9 | 6 | COC(=O)Nc1ccc2c(c1)NC(=O)[C@H](C)CCC[C@H](N1CCN(c3c(F)ccc(Cl)c3F)CC1=O)c1cc-2ccn1 | 4.6 | – |
| – | 9 | 2.7 | 6 | 15 | COC(=O)Nc1ccc2c(c1)NC(=O)[C@H](C)CCC[C@H](N1CC[C@H](c3c(F)ccc(Cl)c3F)OC1=O)c1cc-2cnc1F | 1.2 | – |
| 2 | 17 | 1.8 | 9 | 21 | COC(=O)Nc1ccc2c(c1)NC(=O)[C@H](C)CCC[C@H](N1CC[C@H](c3c(F)ccc(Cl)c3F)OC1=O)c1cncc-2c1 | 0.6 | – |
| 9 | 36 | 1.6 | 29 | 44 | COC(=O)Nc1ccc2c(c1)NC(=O)[C@H](C)CCC[C@H](N1CC[C@H](c3c(F)ccc(Cl)c3F)OC1=O)c1ccnc-2c1 | 0.5 | bioavailability [6]: 48%; clearance [7]: 33 mL/min/kg |
| 3 | 8 | 0.9 | 15 | 13 | COC(=O)Nc1ccc2c(c1)NC(=O)[C@H](C)CCC[C@H](N1CCC(c3c(F)ccc(Cl)c3F)CC1=O)c1cc-2ccn1 (mixture of isomers) | 2.8 | – |
